Experimental findings from patent US10138244B2, “Triazolopyrazinone derivative useful as a human PDE1 inhibitor” (Eli Lilly and Company, priority 2016, dated 2018) are described below.

Holding throughout (type): biochemical
In test [1] the target is T1, human PDE3A (catalytic domain) (Homo sapiens, UniProt Q14432).
T1 construct: catalytic domain (residue 641-1141) of PDE3A (NP_000912.3); HIS (C); made in house; host or cells: Sf9 (baculovirus, pFastBac1)
The test is described as follows: PDE enzyme assay using [3H]cAMP as substrate (SPA), PDE3A. To be noted: human PDE3A catalytic domain 0.008 nM, [3H]cAMP 47 nM. The source says: (§1) The nucleotide sequences encoding full-length human PDE1A (NP_001003683.1), PDE1C (NP_005011.1), PDE5A (NP_001074.2), PDE7B (NP_061818.1) and PDE9A (NP_002597.1) are inserted into pFastBac1 (Invitrogen) vector with an N-terminal HIS tag. The nucleotide sequences encoding full-length human PDE4D (NP_006194.2) and catalytic domain (residue 641-1141) of PDE3A (NP_000912.3) are inserted into pFastBac1 (Invitrogen) vector with a C-terminal HIS tag. The nucleotide sequences encoding full-length human PDE8A (NP_002596.1) and PDE11A (AAI12394.1) are inserted into pFastBac1 (Invitrogen) vector with an N-terminal Flag tag. The nucleotide sequences encoding full-length human PDE10A (AAD32595.1) are inserted into pFastBac1 (Invitrogen) vector with a C-terminal Flag-His tag. […]
(§2) All 3′, 5′ cyclic nucleotide phosphodiesterase (PDE) enzyme activities are measured with a radiometric enzyme assay based on SPA detection system (scintillation proximity assay). […] Samples are read 12 hours later in a MICROBETA™ TRILUX® Counter. […] IC50 values are calculated by plotting the normalized data vs. log [compound] and fitting the data using a four parameter logistic equation.
(§3) The following phosphodiesterase activities are measured using [^3H]cAMP as reaction substrate: human PDE3A (catalytic domain), human PDE4D, human PDE7B and human PDE8A. […]

Test [2] concerns the target T2, human PDE9A (Homo sapiens, UniProt O76083).
T2 construct: full-length human PDE1A (NP_001003683.1), PDE1C (NP_005011.1), PDE5A (NP_001074.2), PDE7B (NP_061818.1) and PDE9A (NP_002597.1); HIS (N); made in house; host or cells: Sf9 (baculovirus, pFastBac1)
The test is described as follows: PDE enzyme assay using [3H]cGMP as substrate (SPA), PDE9A. The conditions noted are these: human PDE9A 1 nM, [3H]cGMP 20 nM.
Description: as §1, §2
(§4) The following phosphodiesterase activities are measured using [^3H]cGMP as reaction substrate: human PDE2A, human PDE5A, human PDE6A/6B, human PDE9A, human PDE10A and human PDE11A. […]

For test [3], the target named is T3, human PDE6A/6B (Homo sapiens, UniProt P16499+P35913).
T3 construct: encoding full-length human PDE6A (NP_000431.2) and PDE6B (AAH00249.1); HIS (N); Flag (N); made in house; host or cells: Sf9 (baculovirus, pFastBacDual)
The test is described as follows: PDE enzyme assay using [3H]cGMP as substrate (SPA), PDE6A/6B dimer. To be noted: human PDE6AB dimer 5 nM, [3H]cGMP 80 nM; read-out: IC50 (nM) PDE 6AB.
Description: as §1, §2, §4

In test [4] the target is T4, human PDE2A (Homo sapiens, UniProt O00408).
T4 construct: full-length human PDE1B (NP_000915.1) and PDE2A (NP_002590.1); HIS (C); made in house; host or cells: Sf9 (pIEX4)
The test can be described thus: PDE enzyme assay using [3H]cGMP as substrate (SPA), PDE2A. The conditions noted are these: human PDE2A 0.2 nM, [3H]cGMP 80 nM.
Description: as §1, §2, §4

For test [5], the target named is T5, human PDE11A (Homo sapiens, UniProt Q9HCR9).
T5 construct: full-length human PDE8A (NP_002596.1) and PDE11A (AAI12394.1); Flag (N); made in house; host or cells: Sf9 (baculovirus, pFastBac1)
The test is described as follows: PDE enzyme assay using [3H]cGMP as substrate (SPA), PDE11A. The conditions noted are these: human PDE11A 0.03 nM, [3H]cGMP 80 nM.
Description: as §1, §2, §4

The target in test [6] is T6, human PDE1A (Homo sapiens, UniProt P54750).
T6 construct: encoding full-length human PDE1A (NP_001003683.1); HIS (N); made in house; host or cells: Sf9 (baculovirus, pFastBac1)
The test can be described thus: Ca2+-calmodulin dependent PDE enzyme assay (SPA), PDE1A. To be noted: human PDE1A 0.25 nM, [3H]cAMP 47 nM, calmodulin 6 U/ml; read-out: IC50 (nM) PDE 1A. The text has this:
(§5) The nucleotide sequences encoding full-length human PDE1A (NP_001003683.1), PDE1C (NP_005011.1), PDE5A (NP_001074.2), PDE7B (NP_061818.1) and PDE9A (NP_002597.1) are inserted into pFastBac1 (Invitrogen) vector with an N-terminal HIS tag. The nucleotide sequences encoding full-length human PDE4D (NP_006194.2) and catalytic domain (residue 641-1141) of PDE3A (NP_000912.3) are inserted into pFastBac1 (Invitrogen) vector with a C-terminal HIS tag. The nucleotide sequences encoding full-length human PDE8A (NP_002596.1) and PDE11A (AAI12394.1) are inserted into pFastBac1 (Invitrogen) vector with an N-terminal Flag tag. The nucleotide sequences encoding full-length human PDE10A (AAD32595.1) are inserted into pFastBac1 (Invitrogen) vector with a C-terminal Flag-His tag. The nucleotide sequences encoding full-length human PDE6A (NP_000431.2) and PDE6B (AAH00249.1) are inserted into pFastBacDual (Invitrogen) vector with an N-terminal HIS tag and N-terminal Flag tag, respectively, for production of PDE6A/6B dimer. […]
(§6) All 3′, 5′ cyclic nucleotide phosphodiesterase (PDE) enzyme activities are measured with a radiometric enzyme assay based on SPA detection system (scintillation proximity assay). […] Samples are read 12 hours later in a MICROBETA™ TRILUX® Counter. […] IC50 values are calculated by plotting the normalized data vs. log [compound] and fitting the data using a four parameter logistic equation. […]

For test [7], the target named is T7, human PDE1C (Homo sapiens, UniProt Q14123).
T7 construct: full-length human PDE1A (NP_001003683.1), PDE1C (NP_005011.1); HIS (N); made in house; host or cells: Sf9 (baculovirus, pFastBac1)
The test can be described thus: Ca2+-calmodulin dependent PDE enzyme assay (SPA), PDE1C. To be noted: human PDE1C 0.0012 nM, [3H]cAMP 47 nM, calmodulin 6 U/ml; read-out: IC50 (nM) PDE 1C.
Description: as §5, §6

Test [8] concerns the target T8, human PDE10A (Homo sapiens, UniProt Q9Y233).
T8 construct: encoding full-length human PDE10A (AAD32595.1); Flag-His (C); made in house; host or cells: Sf9 (baculovirus, pFastBac1)
The test is described as follows: PDE enzyme assay using [3H]cGMP as substrate (SPA), PDE10A. To be noted: human PDE10A 0.03 nM, [3H]cGMP 80 nM.
Description: as §1, §2, §4

Test [9] concerns the target T9, human PDE7B (Homo sapiens, UniProt Q9NP56).
T9 construct: full-length human PDE1A (NP_001003683.1), PDE1C (NP_005011.1), PDE5A (NP_001074.2), PDE7B (NP_061818.1); HIS (N); made in house; host or cells: Sf9 (baculovirus, pFastBac1)
The test can be described thus: PDE enzyme assay using [3H]cAMP as substrate (SPA), PDE7B. To be noted: human PDE7B 0.5 nM, [3H]cAMP 47 nM.
Description: as §1, §2, §3

Test [10] deals with T10, human PDE5A (Homo sapiens, UniProt O76074).
T10 construct: full-length human PDE1A (NP_001003683.1), PDE1C (NP_005011.1), PDE5A (NP_001074.2); HIS (N); made in house; host or cells: Sf9 (baculovirus, pFastBac1)
The test can be described thus: PDE enzyme assay using [3H]cGMP as substrate (SPA), PDE5A. To be noted: human PDE5A 0.002 nM, [3H]cGMP 80 nM.
Description: as §1, §2, §4

Test [11] has as its target T11, human PDE1B (Homo sapiens, UniProt Q01064).
T11 construct: encoding full-length human PDE1B (NP_000915.1); HIS (C); made in house; host or cells: Sf9 (pIEX4)
The test is described as follows: Ca2+-calmodulin dependent PDE enzyme assay (SPA), PDE1B. The conditions noted are these: human PDE1B 0.074 nM, [3H]cAMP 47 nM, calmodulin 6 U/ml; read-out: IC50 (nM) PDE 1B.
Description: as §5, §6

In test [12] the target is T12, human PDE8A (Homo sapiens, UniProt O60658).
T12 construct: encoding full-length human PDE8A (NP_002596.1); Flag (N); made in house; host or cells: Sf9 (baculovirus, pFastBac1)
The test can be described thus: PDE enzyme assay using [3H]cAMP as substrate (SPA), PDE8A. To be noted: human PDE8A 0.06 nM, [3H]cAMP 47 nM.
Description: as §1, §2, §3

The target of test [13] is T13, human PDE4D (Homo sapiens, UniProt Q08499).
T13 construct: encoding full-length human PDE4D (NP_006194.2); HIS (C); made in house; host or cells: Sf9 (baculovirus, pFastBac1)
The test can be described thus: PDE enzyme assay using [3H]cAMP as substrate (SPA), PDE4D. To be noted: human PDE4D 0.021 nM, [3H]cAMP 47 nM.
Description: as §1, §2, §3

Structures are written as SMILES.

T8 sequence (Q9Y233 1-779 isoform Q9Y233-1): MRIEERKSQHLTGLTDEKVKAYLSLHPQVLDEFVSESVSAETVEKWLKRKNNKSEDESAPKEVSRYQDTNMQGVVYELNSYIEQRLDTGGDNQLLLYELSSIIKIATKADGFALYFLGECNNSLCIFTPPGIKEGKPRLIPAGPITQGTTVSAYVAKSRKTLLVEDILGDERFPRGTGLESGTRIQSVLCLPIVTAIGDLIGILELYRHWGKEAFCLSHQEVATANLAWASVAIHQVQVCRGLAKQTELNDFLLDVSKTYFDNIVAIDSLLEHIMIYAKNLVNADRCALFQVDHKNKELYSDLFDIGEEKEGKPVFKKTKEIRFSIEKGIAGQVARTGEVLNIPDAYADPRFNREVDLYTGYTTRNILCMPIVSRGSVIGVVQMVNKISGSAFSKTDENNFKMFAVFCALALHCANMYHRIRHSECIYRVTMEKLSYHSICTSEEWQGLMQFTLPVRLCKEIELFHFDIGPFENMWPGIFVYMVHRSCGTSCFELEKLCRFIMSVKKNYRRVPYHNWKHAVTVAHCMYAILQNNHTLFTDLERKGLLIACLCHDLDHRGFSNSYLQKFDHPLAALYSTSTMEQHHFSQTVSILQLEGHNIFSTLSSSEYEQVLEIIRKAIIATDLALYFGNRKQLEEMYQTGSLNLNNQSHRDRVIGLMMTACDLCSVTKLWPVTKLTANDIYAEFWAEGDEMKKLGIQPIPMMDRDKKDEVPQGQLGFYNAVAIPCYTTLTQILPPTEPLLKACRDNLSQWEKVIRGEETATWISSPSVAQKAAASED
T12 sequence (O60658 whole entry): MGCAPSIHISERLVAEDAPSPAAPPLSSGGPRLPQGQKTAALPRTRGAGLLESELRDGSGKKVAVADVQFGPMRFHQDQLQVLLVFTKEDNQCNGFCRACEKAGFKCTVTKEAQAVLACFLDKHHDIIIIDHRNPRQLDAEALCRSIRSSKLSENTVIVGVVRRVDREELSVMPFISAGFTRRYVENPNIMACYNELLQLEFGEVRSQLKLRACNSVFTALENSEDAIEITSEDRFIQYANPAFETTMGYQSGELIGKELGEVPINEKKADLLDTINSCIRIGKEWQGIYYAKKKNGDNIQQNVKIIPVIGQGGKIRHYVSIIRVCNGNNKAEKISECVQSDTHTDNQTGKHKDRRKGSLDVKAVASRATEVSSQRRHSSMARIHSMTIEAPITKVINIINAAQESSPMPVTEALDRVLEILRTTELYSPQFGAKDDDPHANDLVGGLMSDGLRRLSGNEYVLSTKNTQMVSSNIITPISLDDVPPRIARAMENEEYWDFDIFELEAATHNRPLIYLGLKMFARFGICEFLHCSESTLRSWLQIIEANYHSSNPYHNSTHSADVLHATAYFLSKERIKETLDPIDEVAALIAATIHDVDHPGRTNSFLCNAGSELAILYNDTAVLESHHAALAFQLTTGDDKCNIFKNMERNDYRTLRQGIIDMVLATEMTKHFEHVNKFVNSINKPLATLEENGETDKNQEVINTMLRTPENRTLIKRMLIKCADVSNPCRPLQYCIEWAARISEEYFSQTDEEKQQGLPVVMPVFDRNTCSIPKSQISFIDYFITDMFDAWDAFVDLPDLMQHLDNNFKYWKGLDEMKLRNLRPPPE
T13 sequence (Q08499 1-673 isoform Q08499-2): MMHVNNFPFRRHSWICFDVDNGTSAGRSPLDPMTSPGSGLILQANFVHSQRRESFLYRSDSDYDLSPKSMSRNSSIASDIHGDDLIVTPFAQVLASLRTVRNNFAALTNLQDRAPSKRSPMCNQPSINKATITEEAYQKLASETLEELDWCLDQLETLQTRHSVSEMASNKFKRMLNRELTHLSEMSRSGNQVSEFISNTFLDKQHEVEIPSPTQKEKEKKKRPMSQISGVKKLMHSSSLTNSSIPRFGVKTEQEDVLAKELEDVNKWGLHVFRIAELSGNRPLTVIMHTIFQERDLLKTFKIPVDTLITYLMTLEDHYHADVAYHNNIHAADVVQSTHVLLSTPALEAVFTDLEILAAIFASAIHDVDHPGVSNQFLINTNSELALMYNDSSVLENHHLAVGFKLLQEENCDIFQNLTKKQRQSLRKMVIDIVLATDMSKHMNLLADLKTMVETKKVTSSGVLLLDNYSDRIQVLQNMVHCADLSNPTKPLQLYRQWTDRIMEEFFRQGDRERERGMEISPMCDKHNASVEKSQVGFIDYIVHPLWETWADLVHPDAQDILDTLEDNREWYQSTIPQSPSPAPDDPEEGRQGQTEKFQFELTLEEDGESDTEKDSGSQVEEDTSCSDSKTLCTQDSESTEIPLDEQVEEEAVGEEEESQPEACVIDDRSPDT
T9 sequence (Q9NP56 whole entry): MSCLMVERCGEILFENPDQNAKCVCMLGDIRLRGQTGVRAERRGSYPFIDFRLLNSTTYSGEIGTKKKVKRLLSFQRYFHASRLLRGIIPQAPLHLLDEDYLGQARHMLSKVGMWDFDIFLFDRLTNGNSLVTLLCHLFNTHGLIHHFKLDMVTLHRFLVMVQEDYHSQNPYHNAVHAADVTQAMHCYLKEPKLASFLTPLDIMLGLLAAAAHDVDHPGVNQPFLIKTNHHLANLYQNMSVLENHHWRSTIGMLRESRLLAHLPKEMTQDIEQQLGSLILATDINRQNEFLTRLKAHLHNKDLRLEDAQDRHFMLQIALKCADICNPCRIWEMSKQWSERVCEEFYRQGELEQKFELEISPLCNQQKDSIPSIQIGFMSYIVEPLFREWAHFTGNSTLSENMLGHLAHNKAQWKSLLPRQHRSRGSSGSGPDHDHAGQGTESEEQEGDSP
T5 sequence (Q9HCR9 whole entry): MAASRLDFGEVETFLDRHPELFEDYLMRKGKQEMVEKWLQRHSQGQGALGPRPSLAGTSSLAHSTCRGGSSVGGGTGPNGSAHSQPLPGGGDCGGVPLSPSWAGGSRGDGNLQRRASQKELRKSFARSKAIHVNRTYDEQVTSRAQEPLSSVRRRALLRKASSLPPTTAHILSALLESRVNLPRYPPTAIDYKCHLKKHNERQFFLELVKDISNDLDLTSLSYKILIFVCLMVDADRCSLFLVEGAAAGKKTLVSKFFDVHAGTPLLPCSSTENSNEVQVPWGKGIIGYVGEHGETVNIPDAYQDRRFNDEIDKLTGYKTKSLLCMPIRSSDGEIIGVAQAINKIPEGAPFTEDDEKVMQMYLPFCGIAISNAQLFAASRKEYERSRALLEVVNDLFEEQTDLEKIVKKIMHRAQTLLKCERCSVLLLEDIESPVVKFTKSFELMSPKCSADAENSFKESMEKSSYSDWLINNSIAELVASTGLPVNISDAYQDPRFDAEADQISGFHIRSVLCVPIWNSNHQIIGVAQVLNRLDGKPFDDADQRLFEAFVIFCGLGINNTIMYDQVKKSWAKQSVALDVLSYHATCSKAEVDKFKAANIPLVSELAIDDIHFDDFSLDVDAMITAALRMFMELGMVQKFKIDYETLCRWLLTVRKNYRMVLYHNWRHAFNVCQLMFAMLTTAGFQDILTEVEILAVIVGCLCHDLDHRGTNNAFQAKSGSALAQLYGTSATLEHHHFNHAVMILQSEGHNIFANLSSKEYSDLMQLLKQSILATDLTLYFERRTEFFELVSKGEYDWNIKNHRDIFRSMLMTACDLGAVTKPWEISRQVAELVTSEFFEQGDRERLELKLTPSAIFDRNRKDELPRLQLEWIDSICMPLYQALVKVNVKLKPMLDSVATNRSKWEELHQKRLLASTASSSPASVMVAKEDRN
T2 sequence (O76083 whole entry): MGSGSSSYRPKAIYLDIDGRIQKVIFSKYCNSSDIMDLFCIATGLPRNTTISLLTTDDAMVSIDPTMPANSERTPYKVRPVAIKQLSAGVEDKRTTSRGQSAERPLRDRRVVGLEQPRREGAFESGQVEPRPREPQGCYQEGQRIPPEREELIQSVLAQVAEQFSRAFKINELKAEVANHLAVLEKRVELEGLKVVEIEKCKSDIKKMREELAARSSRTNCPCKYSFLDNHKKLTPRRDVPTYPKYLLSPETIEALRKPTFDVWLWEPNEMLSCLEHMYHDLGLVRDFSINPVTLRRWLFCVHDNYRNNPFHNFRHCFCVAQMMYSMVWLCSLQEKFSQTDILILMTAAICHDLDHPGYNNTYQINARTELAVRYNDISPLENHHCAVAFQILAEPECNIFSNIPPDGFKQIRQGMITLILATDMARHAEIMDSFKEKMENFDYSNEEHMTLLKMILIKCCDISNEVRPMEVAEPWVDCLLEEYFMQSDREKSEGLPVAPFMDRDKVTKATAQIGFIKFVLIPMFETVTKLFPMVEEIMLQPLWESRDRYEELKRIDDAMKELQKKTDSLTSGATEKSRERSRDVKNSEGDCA
T1 sequence (Q14432 641-1141): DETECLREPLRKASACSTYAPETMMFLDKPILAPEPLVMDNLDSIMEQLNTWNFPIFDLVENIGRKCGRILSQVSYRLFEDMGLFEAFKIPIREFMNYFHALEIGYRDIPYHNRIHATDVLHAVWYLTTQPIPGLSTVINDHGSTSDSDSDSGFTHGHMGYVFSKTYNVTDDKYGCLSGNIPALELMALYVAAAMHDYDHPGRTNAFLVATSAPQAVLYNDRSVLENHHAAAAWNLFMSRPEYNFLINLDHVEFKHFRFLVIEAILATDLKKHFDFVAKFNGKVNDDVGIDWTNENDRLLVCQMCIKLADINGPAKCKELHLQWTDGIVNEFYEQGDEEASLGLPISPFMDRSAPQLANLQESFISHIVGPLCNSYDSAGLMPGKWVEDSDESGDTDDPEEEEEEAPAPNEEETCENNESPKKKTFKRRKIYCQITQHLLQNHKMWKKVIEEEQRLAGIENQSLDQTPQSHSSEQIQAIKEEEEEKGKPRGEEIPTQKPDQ

Take `CCCCn1c(=O)c2nnc(C3(C)CC3)n2c2ncccc21` [Example 1, 5-butyl-9-(1-methylcyclopropyl)pyrido[3,2-e][1,2,4]triazolo[4,3-a]pyrazin-6(5H)-one]: the IC50 (usually the concentration needed to halve the response being measured) in test [1] is greater than 100000 nM; in test [2], greater than 10000 nM; in test [3] it was 2460 ± 247 nM; in [4], greater than 10000 nM; in test [5], 389 ± 179 nM; in test [6], 10.9 ± 2.6 nM. Further, the concentration for half-maximal inhibition (IC50) in test [7] was 2.65 ± 0.9 nM; in test [8] it was 9340 nM; in [9], 4170 nM; in test [10], 3130 nM; in test [11], 16.3 ± 9.1 nM; in test [12] it was greater than 10000 nM. Further, in [13], the IC50 is 11900 ± 1580 nM.
